Assay results from patent US11702422B2, “Imidazopyridazines as modulators of IL-17” (Janssen Pharmaceutica NV, priority 2020, dated 2023).

Legend:
[1] = molecular target: IL-17A(FLAG-Tagged): IL-17RA(His-Tagged) (Homo sapiens, UniProt Q16552, K93Q); assay: IL-17A(FLAG-Tagged): IL-17RA(His-Tagged) Binding Disruption Eu-HTRF Assay; conditions: IL-17A/IL-17RA binding disruption, simple average if tested more than once
How it was run: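 IC50 comes from a one-site competition fit of the HTRF 665/620 nm ratio. Compound dilutions (2-fold, 22 points) were held 1 h rt with FLAG-tagged IL-17A dimer, then His-tagged IL-17RA plus Eu-cryptate anti-FLAG and D2 anti-His antibodies were added for 2 h rt.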

[2] = test system: IL-17A-induced G-CSF production in human normal keratinocyte (NHK); assay: NHK Assay: IL-17A-induced G-CSF production in human normal keratinocytes; assay type: cell-based; conditions: 24 h, adult normal human keratinocytes, IL-17A 5 ng/mL, simple average if tested more than once
How it was run: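 G-CSF released by primary adult human keratinocytes after 24 h at 37° C was quantified by HTRF via standard curve to give IC50. Stimulus was 5 ng/mL IL-17A pre-mixed 1 h at rt with compound dilutions, in 5% FBS and 0.2% DMSO. Cell viability was assessed in parallel with CellTiter-Glo.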

UniProt Q16552, sequence (Q16552 with tags, fused parts or gaps K93Q): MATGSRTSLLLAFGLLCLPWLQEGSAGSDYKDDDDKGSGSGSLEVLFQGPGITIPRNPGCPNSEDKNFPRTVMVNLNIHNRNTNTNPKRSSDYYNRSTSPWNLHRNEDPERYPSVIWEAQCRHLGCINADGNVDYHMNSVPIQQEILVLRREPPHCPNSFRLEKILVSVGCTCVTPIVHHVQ

| Compound | IC50 [1] [nM] | IC50 ([2]; Homo sapiens, Keratinocyte) [nM] | IC50 [2] [nM] |
| --- | --- | --- | --- |
| CC(C)n1cncc1C(=O)N[C@H](c1cn2ncc([C@H](NC(=O)CCC(F)(F)F)C3CC3)cc2n1)C1CCC(F)(F)CC1 [Example 85, N—((S)-(7-((R)-Cyclopropyl(4,4,4-trifluorobutanamido)methyl)imidazo[1,2-b]pyridazin-2-yl)(4,4-difluorocyclohexyl)methyl)-1-isopropyl-1H-imidazole-5-carboxamide] | 250 | 340 |  |
| CC(C)c1ocnc1C(=O)N[C@H](c1cn2ncc([C@H](NC(=O)CCC(F)(F)F)C3CC3)cc2n1)C1CCC(F)(F)CC1 [Example 86, N—((S)-(7-((R)-Cyclopropyl(4,4,4-trifluorobutanamido)methyl)imidazo[1,2-b]pyridazin-2-yl)(4,4-difluorocyclohexyl)methyl)-5-isopropyloxazole-4-carboxamide] | 210 | 350 |  |
| CC(C)c1snnc1C(=O)N[C@H](c1cn2ncc([C@H](NC(=O)CCC(F)(F)F)C3CC3)cc2n1)C1CCC(F)(F)CC1 [Example 87, N—((S)-(7-((R)-Cyclopropyl(4,4,4-trifluorobutanamido)methyl)imidazo[1,2-b]pyridazin-2-yl)(4,4-difluorocyclohexyl)methyl)-5-isopropyl-1,2,3-thiadiazole-4-carboxamide] | 33 | 95 |  |
| CCc1oncc1C(=O)N[C@H](c1cn2ncc([C@H](NC(=O)CCC(F)(F)F)C3CC3)cc2n1)C1CCC(F)(F)CC1 [Example 88, N—((S)-(7-((R)-Cyclopropyl(4,4,4-trifluorobutanamido)methyl)imidazo[1,2-b]pyridazin-2-yl)(4,4-difluorocyclohexyl)methyl)-5-ethylisoxazole-4-carboxamide] | 56 | 110 |  |
| CC(C)c1oncc1C(=O)N[C@H](c1cn2ncc([C@H](NC(=O)CCC(F)(F)F)C3CC3)cc2n1)C1CCC(F)(F)CC1 [Example 89, N—((S)-(7-((R)-Cyclopropyl(4,4,4-trifluorobutanamido)methyl)imidazo[1,2-b]pyridazin-2-yl)(4,4-difluorocyclohexyl)methyl)-5-isopropylisoxazole-4-carboxamide] | 43 |  | 65 |
| O=C(CCC(F)(F)F)N[C@@H](c1cnn2cc([C@@H](NC(=O)[C@@H]3C[C@H]3F)C3CCC(F)(F)CC3)nc2c1)C1CC1 [Example 90, (1S,2R)—N—((S)-(7-((R)-Cyclopropyl(4,4,4-trifluorobutanamido)methyl)imidazo[1,2-b]pyridazin-2-yl)(4,4-difluorocyclohexyl)methyl)-2-fluorocyclopropane-1-carboxamide] | 1500 | ~20000 |  |
| O=C(CCC(F)(F)F)N[C@@H](c1cnn2cc([C@@H](NC(=O)c3cnnn3CC3CCC3(F)F)C3CCC(F)(F)CC3)nc2c1)C1CC1 (stereo partly drawn) [Example 91, N—((S)-(7-((R)-Cyclopropyl(4,4,4-trifluorobutanamido)methyl)imidazo[1,2-b]pyridazin-2-yl)(4,4-difluorocyclohexyl)methyl)-1-((2,2-difluorocyclobutyl)methyl)-1H-1,2,3-triazole-5-carboxamide] | 92 | 120 |  |
| O=C(CCC(F)(F)F)N[C@@H](c1cnn2cc([C@@H](NC(=O)c3cnnn3CC3CC3(F)F)C3CCC(F)(F)CC3)nc2c1)C1CC1 (stereo partly drawn) [Example 92, N—((S)-(7-((R)-Cyclopropyl(4,4,4-trifluorobutanamido)methyl)imidazo[1,2-b]pyridazin-2-yl)(4,4-difluorocyclohexyl)methyl)-1-((2,2-difluorocyclopropyl)methyl)-1H-1,2,3-triazole-5-carboxamide] | 110 | 140 |  |
| O=C(CCC(F)(F)F)N[C@@H](c1cnn2cc([C@@H](NC(=O)c3cnn(CC4CC4(F)F)n3)C3CCC(F)(F)CC3)nc2c1)C1CC1 (stereo partly drawn) [Example 93, N—((S)-(7-((R)-Cyclopropyl(4,4,4-trifluorobutanamido)methyl)imidazo[1,2-b]pyridazin-2-yl)(4,4-difluorocyclohexyl)methyl)-2-((2,2-difluorocyclopropyl)methyl)-2H-1,2,3-triazole-4-carboxamide] | 150 | 280 |  |
| O=C(CCC(F)(F)F)N[C@@H](c1cnn2cc([C@@H](NC(=O)c3cnnn3CC3CC(F)(F)C3(F)F)C3CCC(F)(F)CC3)nc2c1)C1CC1 (stereo partly drawn) [Example 94, N—((S)-(7-((R)-Cyclopropyl(4,4,4-trifluorobutanamido)methyl)imidazo[1,2-b]pyridazin-2-yl)(4,4-difluorocyclohexyl)methyl)-1-((2,2,3,3-tetrafluorocyclobutyl)methyl)-1H-1,2,3-triazole-5-carboxamide] | 110 | 150 |  |
| O=C(CCC(F)(F)F)N[C@@H](c1cnn2cc([C@@H](NC(=O)c3cnn(CC4CC(F)(F)C4(F)F)n3)C3CCC(F)(F)CC3)nc2c1)C1CC1 (stereo partly drawn) [Example 95, N—((S)-(7-((R)-Cyclopropyl(4,4,4-trifluorobutanamido)methyl)imidazo[1,2-b]pyridazin-2-yl)(4,4-difluorocyclohexyl)methyl)-2-((2,2,3,3-tetrafluorocyclobutyl)methyl)-2H-1,2,3-triazole-4-carboxamide] | 100 | 260 |  |
| O=C(CCC(F)(F)F)N[C@@H](c1cnn2cc([C@@H](NC(=O)c3cn(CC4CC(F)(F)C4(F)F)nn3)C3CCC(F)(F)CC3)nc2c1)C1CC1 (stereo partly drawn) [Example 96, N—((S)-(7-((R)-Cyclopropyl(4,4,4-trifluorobutanamido)methyl)imidazo[1,2-b]pyridazin-2-yl)(4,4-difluorocyclohexyl)methyl)-1-((2,2,3,3-tetrafluorocyclobutyl)methyl)-1H-1,2,3-triazole-4-carboxamide] | 370 | 2200 |  |
| O=C(CCC(F)(F)F)N[C@@H](c1cnn2cc([C@@H](NC(=O)[C@H]3C[C@H]3F)C3CCC(F)(F)CC3)nc2c1)C1CC1 [Example 97, (1R,2R)—N—((S)-(7-((R)-Cyclopropyl(4,4,4-trifluorobutanamido)methyl)imidazo[1,2-b]pyridazin-2-yl)(4,4-difluorocyclohexyl)methyl)-2-fluorocyclopropane-1-carboxamide] | 5400 | > 20000 |  |
| O=C(CCC(F)(F)F)N[C@@H](c1cnn2cc([C@@H](NC(=O)[C@H]3C[C@@H]3F)C3CCC(F)(F)CC3)nc2c1)C1CC1 [Example 98, (1R,2S)—N—((S)-(7-((R)-Cyclopropyl(4,4,4-trifluorobutanamido)methyl)imidazo[1,2-b]pyridazin-2-yl)(4,4-difluorocyclohexyl)methyl)-2-fluorocyclopropane-1-carboxamide] | 770 | 2300 |  |
| O=C(CCC(F)(F)F)N[C@@H](c1cnn2cc([C@@H](NC(=O)c3conc3CCF)C3CCC(F)(F)CC3)nc2c1)C1CC1 [Example 99, N—[(S)-[7-[(R)-Cyclopropyl-(4,4,4-trifluorobutanoylamino)methyl]imidazo[1,2-b]pyridazin-2-yl]-(4,4-difluorocyclohexyl)methyl]-3-(2-fluoroethyl)isoxazole-4-carboxamide] | 57 | 60 |  |
| CC1(c2nocc2C(=O)N[C@H](c2cn3ncc([C@H](NC(=O)CCC(F)(F)F)C4CC4)cc3n2)C2CCC(F)(F)CC2)COC1 [Example 100, N—[(S)-[7-[(R)-Cyclopropyl-(4,4,4-trifluorobutanoylamino)methyl]imidazo[1,2-b]pyridazin-2-yl]-(4,4-difluorocyclohexyl)methyl]-3-(3-methyloxetan-3-yl)isoxazole-4-carboxamide] | 160 | 85 |  |
| O=C(CCC(F)(F)F)N[C@@H](c1cnn2cc([C@@H](NC(=O)c3conc3C(F)(F)F)C3CCC(F)(F)CC3)nc2c1)C1CC1 [Example 101, N—[(S)-[7-[(R)-Cyclopropyl-(4,4,4-trifluorobutanoylamino)methyl]imidazo[1,2-b]pyridazin-2-yl]-(4,4-difluorocyclohexyl)methyl]-3-(trifluoromethyl)isoxazole-4-carboxamide] | 39 | 160 |  |
| COCc1nocc1C(=O)N[C@H](c1cn2ncc([C@H](NC(=O)CCC(F)(F)F)C3CC3)cc2n1)C1CCC(F)(F)CC1 [Example 102, N—[(S)-[7-[(R)-Cyclopropyl-(4,4,4-trifluorobutanoylamino)methyl]imidazo[1,2-b]pyridazin-2-yl]-(4,4-difluorocyclohexyl)methyl]-3-(methoxymethyl)isoxazole-4-carboxamide] | 120 | 270 |  |
| O=C(CCC(F)(F)F)N[C@@H](c1cnn2cc([C@@H](NC(=O)c3ncnn3C3CC3)C3CCC(F)(F)CC3)nc2c1)C1CC1 [Example 103, 1-Cyclopropyl-N—((S)-(7-((R)-cyclopropyl(4,4,4-trifluorobutanamido)methyl)imidazo[1,2-b]pyridazin-2-yl)(4,4-difluorocyclohexyl)methyl)-1H-1,2,4-triazole-5-carboxamide] | 110 | 370 |  |
| O=C(CCC(F)(F)F)N[C@@H](c1cnn2cc([C@@H](NC(=O)c3ccnn3C(F)(F)F)C3CCC(F)(F)CC3)nc2c1)C1CC1 [Example 104, N—((S)-(7-((R)-Cyclopropyl(4,4,4-trifluorobutanamido)methyl)imidazo[1,2-b]pyridazin-2-yl)(4,4-difluorocyclohexyl)methyl)-1-(trifluoromethyl)-1H-pyrazole-5-carboxamide] | 90 | 550 |  |
